Legend:
[1] = test system: rat sciatic nerve crush injury model; test: Nerve regeneration after sciatic nerve injury (axons, myelinated axons, myelination rate); type: in vivo; details: for Myelination ratio / Number of axons / Number of myelinated axons: POD14
Source text: Six-week-old male Wistar rats (about 200 g) were used. The left sciatic nerve was exteriorized, and crush injury of the sciatic nerve was made on the proximal side by forceps. The nerve was crushed for 10 seconds three times at 10-second intervals. The fascia and skin were sutured using 3-0 nylon. A non-injury group which underwent only sciatic nerve exposure, an untreated group, and a methylcobalamin treatment group were compared. To administer methylcobalamin continuously, an osmotic minipump was placed and left in the dorsal subcutaneous space, and methylcobalamin was administered at a dose of 1 mg/kg/day. In an untreated group, physiological saline was administered instead of methylcobalamin according to the same procedure.
At 1, 3, 7, and 14 days after the surgery, rats were anesthetized with an anesthetic agent. The left sciatic nerve was collected, fixed with 4% PFA for 7 days and with 20% sucrose for 24 hours, and the fixed nerve was freeze-embedded. The embedded tissue was sliced into a 5-μm-thick slice in a nerve short-axis direction and placed on a glass slide. Slices were obtained from 5 positions of 2.5 mm in the proximal direction from an injured region, the injured region, and 2.5, 5.0, and 7.5 mm in the distal direction. The slices were dried for 1 hour and fixed with 95% methanol for 30 minutes. The fixed slices were blocked and allowed to react with primary antibodies at 4° C. overnight. The cells were further allowed to react with a secondary antibody at room temperature for 1 hour so that the nuclei were labeled with DAPI.
The primary antibodies used were a mouse anti-CD68 monoclonal antibody (Abcam), a rabbit anti-iNOS monoclonal antibody (Abcam), a rabbit anti-CD206 monoclonal antibody (Abeam), a rabbit anti-neurofilament 200 (NF 200) polyclonal antibody (SIGMA), and a mouse anti-myelin basic protein (MBP) monoclonal antibody (Calbiochem). The secondary antibodies used were an Alexa 488-labeled goat anti-mouse IgG antibody (Life Technologies), an Alexa 488-labeled goat anti-rabbit IgG antibody (Life Technologies), an Alexa 568-labeled goat anti-mouse IgG antibody (Life Technologies), and an Alexa 568-labeled goat anti-rabbit IgG antibody (Life Technologies).
Effects of methylcobalamin on nerve regeneration after sciatic nerve injury were analyzed by an immunohistological evaluation method. Specifically, the analysis was carried out as follows. Transvers sections of an injured sciatic nerve obtained at 2 weeks after sciatic nerve injury were used for evaluation. As in the macrophage evaluation, evaluations were carried out for the sections at 2.5 mm in the proximal direction from an injury site, the injury site, and 2.5, 5.0, and 7.5 mm in the distal direction. Regenerated axons were labeled with NF 200, and myelin sheaths were labeled with MBP. The myelination rate of the regenerated axons was calculated by the following formula: Myelination rate (%)=number of myelinated axons per mm^2/number of axons per mm^2×100. More specifically, the analysis was performed in the same manner as in Example 7.

Akt-mTOR pathway = test: Western blot of Akt, 4EBP1 and S6K phosphorylation (mechanism of macrophage induction); type: cell-based, mouse; details: 30 minutes
Experimental: The J774A.1 cells (Example 5-1) were seeded on a dish having a diameter of 6 cm. After 4 days, proteins were collected using a cell lysis buffer containing a cocktail of protease inhibitors. The protein concentration was measured by BCA assay. Then, 50 μg of each sample was subjected to SDS-PAGE, and the electrophoresed proteins were transferred to a polyvinylidene difluoride membrane. The membrane was blocked with a blocking buffer for 1 hour, and then the proteins were allowed to react with primary antibodies at 4° C. overnight. The proteins were further allowed to react with a secondary antibody at room temperature for 1 hour and detected using ECL Western Blotting Detection System. To detect the M1 markers iNOS and IL-1β, lipopolysaccharide (LPS) (100 ng/ml) and methylcobalamin were added at 24 hours before collecting the proteins. To detect the M2 markers Arg1 and CD206, IL-4 (20 ng/ml) and methylcobalamin were added at 72 hours before collecting the proteins.
The mechanism of the macrophage induction (Example 5) by methylcobalamin was analyzed. Specifically, the analysis was carried out as follows. At 30 minutes after IL-4 and methylcobalamin (100 nM and 1 mM) were added, activation of Akt, 4EBP1, and S6K in the Akt-mTOR pathway (one of the major signaling pathways that induce M2 gene expression) was evaluated by Western blot. In the pathway, Akt phosphorylation occurs in response to an upstream signal, and 4EBP1 phosphorylation and S6K phosphorylation further occur through mTORC1 in the downstream. The S6K phosphorylation provides a negative feedback to the upstream of the signaling pathway. Western blot was performed as in Example 5-2, except that IL-4 (20 ng/ml), methylcobalamin, and RAD001 (200 nM) were added at 30 minutes before the proteins were collected, and the primary antibodies for detection were changed.

[2] = 5.0 and 7.5 mm in the distal direction, 2 weeks after injury
[3] = 2.5 mm in the proximal direction
[4] = injury site, 2 weeks after sciatic nerve injury, 1 mg/kg/day
[5] = IL-4 20 ng/ml + MeCbl 100 nM, listed as methylcobalamin
[6] = IL-4 20 ng/ml + MeCbl 1 mM + RAD001 (200 nM)
[7] = IL-4 20 ng/ml + MeCbl 1 mM, listed as methylcobalamin

With `C/C1=C2/[N-][C@H]([C@H](CC(N)=O)[C@@]2(C)CCC(=O)NC[C@@H](C)OP(=O)([O-])O[C@H]2[C@@H](O)[C@@H](n3cnc4cc(C)c(C)cc43)O[C@@H]2CO)[C@]2(C)N=C(/C(C)=C3N=C(/C=C4N=C1[C@@H](CCC(N)=O)C\4(C)C)[C@@H](CCC(N)=O)[C@]\3(C)CC(N)=O)[C@@H](CCC(N)=O)[C@]2(C)CC(N)=O.[CH3-].[Co+3]` [MeCbl, methylcobalamin] the “myelination rate as compared to the untreated group” value [1, 2] was “significant differences”, the “numbers of axons as compared to the untreated group” value [1, 2] was “significant differences” and the Myelination ratio ([1]; 2.5 mm in the distal direction) was 0.531. The Number of axons ([1]; 2.5 mm in the distal direction) was 14478, the “Number of myelinated axons” value ([1]; 2.5 mm in the distal direction) was 7620 and the Myelination ratio [1, 3] was 0.975. The Number of axons [1, 3] was 16251, the “Number of myelinated axons” value [1, 3] was 15838 and the Myelination ratio ([1]; 5.0 mm in the distal direction) was 0.253. The Number of axons ([1]; 5.0 mm in the distal direction) was 16663, the “Number of myelinated axons” value ([1]; 5.0 mm in the distal direction) was 4400 and the Myelination ratio ([1]; 7.5 mm in the distal direction) was 0.163. The Number of axons ([1]; 7.5 mm in the distal direction) was 14678, the “Number of myelinated axons” value ([1]; 7.5 mm in the distal direction) was 2473 and the Myelination ratio ([1]; Injury site) was 0.691. For the same molecule, the Number of axons ([1]; Injury site) was 14210, the “Number of myelinated axons” value ([1]; Injury site) was 9785 and the “numbers of axons as compared to the untreated group” value [1, 4] was “significantly improved”. For the same molecule, the “numbers of myelinated axons as compared to the untreated group” value [1, 4] was “significantly improved”, the p-4EBP1/4EBP1 (Akt-mTOR pathway; IL-4 20 ng/ml + MeCbl 100 nM) was 4.94 and the p-Akt/Akt (Akt-mTOR pathway; IL-4 20 ng/ml + MeCbl 100 nM) was 3.58. The p-S6K/S6K (Akt-mTOR pathway; IL-4 20 ng/ml + MeCbl 100 nM) was 2.65, the p-4EBP1/4EBP1 (Akt-mTOR pathway; [5]) was “enhanced” and the p-S6K/S6K (Akt-mTOR pathway; [5]) was “enhanced”. It also gave a p-4EBP1/4EBP1 (Akt-mTOR pathway; [6]) of 2.78, a p-Akt/Akt (Akt-mTOR pathway; [6]) of 3.78 and a p-S6K/S6K (Akt-mTOR pathway; [6]) of 0.33. It also gave a p-4EBP1/4EBP1 (Akt-mTOR pathway; IL-4 20 ng/ml + MeCbl 1 mM) of 6.08, a p-Akt/Akt (Akt-mTOR pathway; IL-4 20 ng/ml + MeCbl 1 mM) of 2.59 and a p-S6K/S6K (Akt-mTOR pathway; IL-4 20 ng/ml + MeCbl 1 mM) of 3.12. The p-4EBP1/4EBP1 (Akt-mTOR pathway; [7]) was “activated”, the p-Akt/Akt (Akt-mTOR pathway; [7]) was “decreased” and the p-S6K/S6K (Akt-mTOR pathway; [7]) was “activated”.

Source: patent publication US12029751B2, “Therapeutic agent for nervous system disease” (OSAKA UNIVERSITY, priority 2017, dated 2024)
